One may read the IC50 as the concentration needed to halve the response being measured.

One test has as its system A549. As to the kind of experiment: Cytotoxicity against human A549 cells assessed as surviving cells after 4 days by MTT assay. Format: cell-based. In general terms: Tetrazolium dyes change colour on reduction, which living cells bring about.
In another test the test system is NCI-H460. Nature of the test: Cytotoxicity against human H460 cells assessed as surviving cells after 4 days by MTT assay. It is filed as cell-based.

In the case of `C/C=C/C(=O)OCC1=CC(O)C(O)C(O)C1=O` (racemic), the IC50 came to 184 µM with A549 (a549) and 160 µM with NCI-H460 (nci-h460).

As for `C/C=C/C(=O)OCC1=CC(O)C2OC(C)(OC)C(C)(OC)OC2C1=O` (racemic), the IC50 in the test on A549 (a549) stood at 30 µM; in the test with NCI-H460 (nci-h460) it was 18 µM.

For `C/C=C/C(=O)OCC1=CC(O)C2OC(C)(OC)C(C)(OC)OC2C1=O` (single isomer, unassigned; (+)), the IC50 worked out at 60 µM in the test on A549 (Homo sapiens, A549, 96 h) and 36 µM in the test with NCI-H460 (Homo sapiens, NCI-H460, 96 h).

Take `C/C=C/C(=O)OCC1=CC(O)C(O)C(O)C1=O` (single isomer, unassigned; (-)): the IC50 with A549 (Homo sapiens, A549, 96 h) was found to be 170 µM; in the test on NCI-H460 (Homo sapiens, NCI-H460, 96 h) it was 158 µM.

The values above are taken from ChEMBL document CHEMBL1140500, “Arene cis-dihydrodiols: useful precursors for the preparation of analogues of the anti-tumour agent, 2-crotonyloxymethyl-(4R,5R,6R)-4,5,6-trihydroxycyclohex-2-enone (COTC)” (Bioorg Med Chem Lett, 2007).
